Starred links: 1 amine or outer side, 2 acyl side, 3 side chain; linkers in the order of their positions; H or OH if unused. Suc = O=C(CCC(=O)[*:2])[*:1] Some results are limits rather than exact numbers.

Usually IC50 stands for the concentration at which inhibition is half-maximal. As a reminder, the cell viability is a per cent measure of how many cells are alive, often set against a control.

Series [1] concerns mouse fibroblasts L929 cells. The format is cell-based. The following applies: MTT, 72 h incubation, normal cells; read-out: IC50 (μM) ± SD L929. Here is the method:
(§1) All cell lines were purchased from the American Type Culture Collection (ATCC, Manassas, VA)[29].
(§2) 24 h later, triplicate wells were treated with media and the compounds being tested. After 72 h of incubation at 37 °C in 5% CO2, the drug-containing medium was removed and replaced with […] of fresh medium containing 5 mg/mL MTT solution. After 4 h of incubation, the medium with MTT was removed, and […] of dimethyl sulfoxide (DMSO) was added to each well. The plates were gently agitated until the purple formazan crystals were dissolved, and the OD490 values were determined using a microplate reader (MK3, Thermo, Germany). The data were calculated and plotted as the percent viability compared to the control.

The nature of series [2]: Physiological stability by HPLC analysis. The format is physicochemical. The note with it: 5 µM; water, PBS, and cell culture fluid; 72 h incubation, room temperature. Here is the method: Figure 4. Stabilities of Deac-SS-Biotin (9, 5 µM) in water, and PBS cell culture fluid were investigated by HPLC analysis. (A) HPLC analysis of Deac-SS-Biotin (9) in water after incubation for and 72 h; (B) HPLC analysis of Deac-SS-Biotin (9) in PBS after incubation for and 72 h; (C) HPLC analysis of Deac-SS-Biotin (9) in cell culture fluid after incubation for and 72 h.
To 8 ml of water, PBS, or cell culture fluid, 2 ml of DMSO stock solution of Deac-SS-Biotin was added. The mixture was incubated with gentle shaking for 72 h at room temperature during which the mixture was measured by HPLC spectra.

The test system of series [3] is A549 cells. Description: Cytotoxicity in A549 cells in the presence of biotin (biotin receptor competition). In kind it is cell-based, human. The protocol:
To explore the contribution of biotin receptor to the transport of biotin conjugates, Deac-SS-Biotin (9) and biotin were evaluated for the antiproliferative activity against A549 cells.
Figure 6. In vitro cytotoxicity of biotin, Deac (13), and Deac-SS-Biotin (9) in A549 cells. Cytotoxicity of biotin, Deac + biotin, and Deac-SS-Biotin + biotin in A549 cells (n = 3).
as §2

Series [4] deals with lung adenocarcinoma A549 cells. The format is cell-based, human. The following applies: MTT, 72 h incubation; read-out: IC50 (μM) ± SD A549. The protocol: as §1, §2
Series [5] concerns cervical carcinoma HeLa cells. In kind it is cell-based, human. The note with it: MTT, 72 h incubation; read-out: IC50 (μM) ± SD Hela. Here is the method:
as §1, §2

Series [6] deals with gastric adenocarcinoma SGC-7901 cells. The format is cell-based, human. The following applies: MTT, 72 h incubation; read-out: IC50 (μM) ± SD SGC-7901. Here is the method: as §1, §2
Series [7] in a line: In vitro release of Deac from biotin conjugates with DTT (HPLC). In kind it is physicochemical. The following applies: 5 μM conjugate. Here is the method:
To investigate the mechanism of GSH-triggered drug release, the in vitro drug release profiles of Deac-SS-Biotin (9) and Deac-Biotin (10) were investigated using DTT (Glutathione mimetic). As shown in Figure 5(A), almost none of Deac was released from Deac-SS-Biotin (9) within 24 h in blank PBS (pH 7.2–7.4, without DTT), and more than 70% of Deac was released within 8 h in the presence of 5, 10, and 20 μM DTT. By contrast, there was negligible Deac (<1.0%) released from Deac-Biotin (10) after 24 h incubation in the presence or absence of 20 μM DTT (Figure 5(B)). […] Furthermore, Deac release from the Deac-SS-Biotin (9) at 10 μM DTT was also investigated by HPLC analysis (Figure 5(C)). Free Deac-SS-Biotin (9) was eluted at 10.8 min in HPLC chromatogram. As 10 μM DTT was added to Deac-SS-Biotin (9), it was sheared by DTT. As chemical reaction involved, this scission was subjected to intramolecular cyclisation, followed by ring-forming condensation, resulting in the liberation of Deac. The peak at 14.3 min appeared accompanied by the disappearance of Deac-SS-Biotin (9), and well-matched with free Deac.
Figure 5. In vitro release of Deac from prodrugs. (A) Release profiles of Deac from Deac-SS-Biotin (9, 5 μM) with 0 μM, 5 μM, 10 μM and 20 μM DTT in PBS (pH 7.2–7.4) (n = 3). (B) Release profiles of Deac from Deac-Biotin (10, 5 μM) with 0 μM, 5 μM, 10 μM and 20 μM DTT in PBS (pH 7.2–7.4) (n = 3). (C) HPLC spectra of Deac-SS-Biotin (9, 5 μM) with 10 μM DTT at 0 and 24 h.
The release of Deac from Deac-SS-Biotin was studied in PBS (pH 7.2–7.4) containing 20% DMSO with 0, 5, 10, or 20 μM, dithiothreitol (DTT), respectively. Briefly, biotin-conjugates (5 μM) were incubated in 10 ml of release medium at 37 °C. At timed intervals, 0.1 ml of sample was withdrawn, and the content of Deac, Deac-Biotin, and Deac-SS-Biotin was determined by HPLC (HPLC-LC-20AT, Shimadzu using SPD-20A UV as the detector, C18 (4.6 × 250 mm, […]) as HPLC analysis column. Method: gradient: 45% methanol in water as mobile elution, flow rate: 1.0 ml min^-1). The UV detector was kept at 254 nm.

The target of series [8] is porcine brain tubulin (Sus scrofa, UniProt P02550+P02554). Here is the method: To examine the biological mechanism of biotin conjugates, Deac-SS-Biotin (9) was evaluated for its effects on tubulin polymerisation (Figure 7).
Figure 7. The effect of Deac-SS-Biotin (9) on tubulin polymerisation. […] The reaction was monitored at 37 °C.
First, 96-well plate was incubated with […] of inhibitors in various concentrations at 37 °C for 1 min. Then […] of the tubulin reaction mix was added. The samples were mixed well, and tubulin assembly was monitored (emission wavelength of 420 nm; excitation wavelength pf 360 nm) at 1 min intervals for 90 min at 37 °C using a plate reader (FAS-Calibur, BD Biosciences, USA).

Series [9] has as its system cells over-expressing active legumain (M38L, HCT116). The following applies: HCT116 vs HEK293, M4C, SW620; cited from earlier work.

Chain of porcine brain tubulin (P02554 whole entry): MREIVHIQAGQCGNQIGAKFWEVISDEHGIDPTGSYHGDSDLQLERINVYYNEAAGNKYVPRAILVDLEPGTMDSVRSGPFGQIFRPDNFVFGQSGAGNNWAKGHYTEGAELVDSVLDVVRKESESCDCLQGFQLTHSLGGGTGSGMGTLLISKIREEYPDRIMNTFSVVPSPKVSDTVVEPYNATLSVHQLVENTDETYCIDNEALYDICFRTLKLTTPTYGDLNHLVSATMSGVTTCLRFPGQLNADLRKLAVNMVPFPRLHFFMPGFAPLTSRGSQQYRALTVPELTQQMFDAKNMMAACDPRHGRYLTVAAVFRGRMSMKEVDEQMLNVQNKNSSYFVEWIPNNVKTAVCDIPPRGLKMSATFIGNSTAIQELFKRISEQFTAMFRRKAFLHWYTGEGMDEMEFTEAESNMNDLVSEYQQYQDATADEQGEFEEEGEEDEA
Chain of porcine brain tubulin (P02550 whole entry): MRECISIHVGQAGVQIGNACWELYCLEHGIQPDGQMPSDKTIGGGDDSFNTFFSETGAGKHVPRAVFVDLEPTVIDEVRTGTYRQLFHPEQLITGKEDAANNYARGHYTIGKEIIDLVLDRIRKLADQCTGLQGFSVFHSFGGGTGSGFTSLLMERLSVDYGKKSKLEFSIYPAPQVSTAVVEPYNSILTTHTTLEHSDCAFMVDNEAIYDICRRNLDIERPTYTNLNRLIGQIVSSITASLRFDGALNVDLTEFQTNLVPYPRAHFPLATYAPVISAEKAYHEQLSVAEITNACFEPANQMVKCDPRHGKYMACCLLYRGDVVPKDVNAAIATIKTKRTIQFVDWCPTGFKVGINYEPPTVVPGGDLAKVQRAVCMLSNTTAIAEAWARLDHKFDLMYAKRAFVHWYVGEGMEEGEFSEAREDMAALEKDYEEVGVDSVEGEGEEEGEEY

For “2-((2-((((S)-2,3,4,10-tetramethoxy-9-oxo-5,6,7,9-tetrahydrobenzo[a]heptalen-7-yl)carbamoyl)oxy)ethyl)disulfanyl)ethyl 5-((3aS,4S,6aR)-2-oxohexahydro-1H-thieno[3,4-d]imidazol-4-yl)pentanoate [Compound 9]”, the IC50 in series [1] was 4.22 ± 0.102 µM; in series [4] it was 0.085 ± 0.008 µM; in series [5], 0.108 ± 0.01 µM; in series [6] it was 0.124 ± 0.011 µM. Besides, the “peak area and peak height (HPLC stability)” value in series [2] is “nearly remained unchanged”. For the same molecule, the cell viability in series [3] (A549, compound at 2-fold IC50, biotin 0.075 μM) was determined as 23.6%; in series [3] (A549, compound at 2-fold IC50, biotin 0.60 μM), 68.9%; in [3] (A549, compound at 2-fold IC50, in the absence of biotin), 17.7%. In addition, the Deac released entry was “more than 70%” in series [7] (PBS pH 7.2–7.4, in the presence of 5, 10, and 20 μM DTT, within 8 h, 37 °C); “almost none” in [7] (blank PBS (pH 7.2–7.4, without DTT), within 24 h, 37 °C). Further, the “anti-tubulin polymerisation activity after coincubation with DTT” value in series [8] (compound at 5 µM and DTT at 10 µM) is recorded as “strong anti-tubulin polymerisation activity”. The “inhibition activity on tubulin polymerisation” value in series [8] (compound at 5 µM, without DTT) was “weak inhibition activity”.

Consider “2-((2-oxo-2–(2-(5-((3aS,4S,6aR)-2-oxohexahydro-1H-thieno[3,4-d]imidazol-4-yl)pentanoyl)hydrazinyl)ethyl)thio)-N-((S)-2,3,4,10-tetramethoxy-9-oxo-5,6,7,9-tetrahydrobenzo[a]heptalen-7-yl)acetamide [Compound 11c]”, for which the IC50 is 10.7 ± 0.2 µM in [1], 1.31 ± 0.092 µM in [4], 2.17 ± 0.1 µM in [5] and 1.95 ± 0.071 µM in [6].

Consider “4-oxo-4–(2-(5-((3aS,4S,6aR)-2-oxohexahydro-1H-thieno[3,4-d]imidazol-4-yl)pentanoyl)hydrazinyl)-N-((S)-2,3,4,10-tetramethoxy-9-oxo-5,6,7,9-tetrahydrobenzo[a]heptalen-7-yl)butanamide [Compound 11a]”, for which the IC50 in [1] was more than 20 µM; in series [4], 6.52 ± 0.19 µM; in series [5], 3.5 ± 0.15 µM; in [6], 7.52 ± 0.12 µM.

As for “5-((3aS,4S,6aR)-2-oxohexahydro-1H-thieno[3,4-d]imidazol-4-yl)-N-((S)-2,3,4,10-tetramethoxy-9-oxo-5,6,7,9-tetrahydrobenzo[a]heptalen-7-yl)pentanamide [Compound 10]”, the IC50 in series [1] worked out at 15.8 ± 0.31 µM; in series [4], 4.85 ± 0.13 µM; in series [5], 6.35 ± 0.11 µM; in series [6], 4.9 ± 0.18 µM. In series [7] (PBS pH 7.2–7.4, after 24 h incubation in the presence or absence of 20 μM DTT), the Deac released is on record as less than 1.0%.

Consider “5-oxo-5–(2-(5-((3aS,4S,6aR)-2-oxohexahydro-1H-thieno[3,4-d]imidazol-4-yl)pentanoyl)hydrazinyl)-N-((S)-2,3,4,10-tetramethoxy-9-oxo-5,6,7,9-tetrahydrobenzo[a]heptalen-7-yl)pentanamide [11 b]”, for which the IC50 in series [1] is 13.4 ± 0.18 µM; in series [4], 2.23 ± 0.12 µM; in [5], 6.94 ± 0.16 µM; in [6], 2.29 ± 0.09 µM.

With “5: legumain-cleavable peptide (Suc-Ala-Ala-Asn-Val)-colchicine (Suc-AANV-colchicine) [Compound 5]”, the “toxicity to cells over-expressing active legumain compared to cells expressing low levels of active or only prolegumain” value in [9] was “more toxic”.

In the case of `O=C(O)CCCC[C@@H]1SC[C@@H]2NC(=O)N[C@@H]21` [biotin, reference compound], the cytotoxicity alone entry in [3] (A549, biotin alone at various concentrations) is reported as “no cytotoxicity”.
